This is an account of results in US20230049350A1, “COMPOUNDS FOR TREATING BRAIN CANCER” (Purdue Pharmaceutical Products L.P., priority 2014, published 2023).

In general, IC50 refers to the midpoint of a concentration-inhibition curve.

Entries after “also recorded” stand apart in the source; their conditions may differ. Where two headings read alike, the source gives them in different places.

For one assay, the system named is U87MG. As to the kind of experiment: GBM cell line viability IC50, U87. Format: cell-based. The following applies: Homo sapiens, U-87 MG. On the procedure:
(§1) In vitro experiments were devised in which a series of GBM cell lines representative for MGMT negative and MGMT positive tumour cells were used.
(§2) Compounds: 1-100 µM EDO-S101, 1-50 µM temozolomide (TMZ), 1-50 µM temozolomide + 500 nM vorinostat, 1-40 µM bendamustine, 1-40 µM bendamustine and 500 nM vorinostat.
(§3) Twelve glioblastoma cell lines representing grade III and IV gliomas and with different expression of MGMT, drug and radiotherapy sensitivity and five patient derived glioblastoma stem, cells were used (see above). Four patient-derived glioblastoma stem cells, kindly provided from J. Gregory Cairncross, and Samuel Weiss at the Hotchkiss Brain Institute, Faculty of Medicine, University of Calgary, Calgary, Alberta, Canada and one luciferase transfected, PTC#8, from Prof Angelo Vescovi, University la Bicocca, Milan were cultured in defined culture serum free medium (SFM) and in non-adherent spheres culture. Cells were resuspended in DMEM/F12 media without serum supplemented with 20 ng/ml epidermal growth factor (Sigma-Aldrich), 20 ng/ml basic fibroblast growth factor (Sigma-Aldrich), B-27 supplement 1X (Gibco, Life Technologies), and antibiotics. Treatment with EDO-S101 was added straight after plating 3×10^3 cells in 96-well plates with the stem cells media. Spheres were counted 5 days after treatment under an inverted microscope at ×4 magnification. A sphere was counted if it had at least 15 cells.
(§4) Cells were seeded at a density of 2 × 10^4 cells/ml in 24 well plates. Cells were left to attach and grow in 5% FCS DMEM for 24 h. […] Cells trypsinized and resuspended in 1.0 ml of saline were counted using the NucleoCounterTM NC-100 (automated cell counter systems, Chemotec, Cydevang, DK) in order to evaluate cell viability. […] IC50 values were calculated by the GraFit method (Erithacus Software Limited, Staines, UK). Cell viability was measured with the 3-(4,5 dimethylthiazol-2-yl)-2,5-diphenyl tetrazolium bromide (MTT; Sigma-Aldrich) assay.
(§5) IC50 and IC20 values for all twelve cell lines against bendamustine and vorinostat were also determined as described above. […]

In a further assay the test system is U118MG. Kind of assay: GBM cell line viability IC50, U118. The class given is cell-based. The note with it: Homo sapiens, U-118-MG. On the procedure:
as §1, §2, §3, §4, §5

A further assay has as its system U373MG (Uppsala). Kind of assay: GBM cell line viability IC50, U373. The class given is cell-based. The following applies: Homo sapiens, U373 MG. As for the experimental part: as §1, §2, §3, §4, §5
A further assay concerns Mz-54. Kind of assay: GBM cell line viability IC50, Mz54. Format: cell-based. As for the experimental part:
as §1, §2, §3, §4, §5

The test system of the next assay is A172. As to the kind of experiment: GBM cell line viability IC50, A172. Format: cell-based. The following applies: Homo sapiens, A 172. On the procedure:
as §1, §2, §3, §4, §5

In the next assay the test system is U138MG. As to the kind of experiment: GBM cell line viability IC50, U138. The note with it: Homo sapiens, U138-MG. Format: cell-based. On the procedure: as §1, §2, §3, §4, §5
A further assay relates to LN228. Kind of assay: GBM cell line viability IC50, LN228/LN229. Format: cell-based. The following applies: Homo sapiens, LN-229. On the procedure: as §1, §2, §3, §4, §5
The next assay deals with SW1783. As to the kind of experiment: GBM cell line viability IC50, SW1783. Format: cell-based. The note with it: Homo sapiens. As for the experimental part: as §1, §2, §3, §4, §5
For the next assay, the system named is LN18. Kind of assay: GBM cell line viability IC50, LN18. The following applies: Homo sapiens, LN-18. Format: cell-based. On the procedure:
as §1, §2, §3, §4, §5

For a further assay, the system named is SNB19. Kind of assay: GBM cell line viability IC50, SNB19. Format: cell-based. The following applies: Homo sapiens, SNB-19. On the procedure:
as §1, §2, §3, §4, §5

A further assay has as its system U87. Kind of assay: s.c. xenograft model of GBM, U87, time to progression. The class given is in vivo, mice. The following applies: for time to progression of the tumours: U87G xenograft. As for the experimental part:
Next, adopting the procedure of Example 3, s.c. xenograft models of GBMs in mice were prepared using the GBM cell lines U251 and U87.
The U251 mice prepared as above were subjected either subjected to radiotherapy (2 Gy for 5 consecutive days), treatment with EDO-S101 (60 mg/kg intravenously at days 1, 8 and 15 of the treatment cycle) or control only. Before any irradiation mice were anesthetized with a mixture of ketamine (25 mg/ml)/xylazine (5 mg/ml). Anesthetized tumor-bearing mice received a focal irradiation at the dose of 2 Gy for 5 consecutive days. Irradiation was delivered using an X-ray linear accelerator at a dose rate of 200 cGy/min at room temperature. All mice were shielded with a specially designed lead apparatus to allow irradiation to the right hind limb. Mice were kept under these conditions until all irradiation finished.
The same sequence of experiments was followed, but this time with the s.c. xenograft models of GBM in mice prepared using the GBM cell line U87. In a first experiment, the U87 mice prepared as above were subjected either subjected to radiotherapy (2 Gy for 5 consecutive days), treatment with EDO-S101 (60 mg/kg intravenously at days 1, 8 and 15 of the treatment cycle) or control only. A study was made of the progression of the GBM.

The subject of assay [1] is MB-468 breast cancer cells. As to the kind of experiment: Murine model for metastatic breast cancer of the brain, intracerebral MB-468. The class given is in vivo, mice. The note with it: MB-468 intracerebral; for median survival: single iv dose day +4, EDO-S101 60 mg/kg, bendamustine 50 mg/kg, controls 55 days. As for the experimental part:
The procedure of Example 3 was repeated, except the murine models were created with 1×10^5 luciferase-transfected MB-468 breast cancer cells to create a […]. EDO-S101 (60 mg/kg body weight), bendamustine (50 mg/kg body weight) and control was administered intravenously via a tail vein to separate groups of the test mice in a single dose on day +4 post intracerebral implantation of the MB-468 breast cancer cells. […] EDO-S101 therefore appears to be a particularly promising treatment for metastatic brain cancer.

The next assay has as its system U251MG. As to the kind of experiment: GBM cell line viability IC50, U251. Format: cell-based. The note with it: Homo sapiens, U-251. On the procedure:
as §1, §2
Twelve glioblastoma cell lines representing grade III and IV gliomas and with different expression of MGMT, drug and radiotherapy sensitivity and five patient derived glioblastoma stem, cells were used (see above). […] Spheres were counted 5 days after treatment under an inverted microscope at ×4 magnification. A sphere was counted if it had at least 15 cells.
Cells were seeded at a density of 2 × 10^4 cells/ml in 24 well plates. […] Cells trypsinized and resuspended in 1.0 ml of saline were counted using the NucleoCounterTM NC-100 (automated cell counter systems, Chemotec, Cydevang, DK) in order to evaluate cell viability. […] IC50 values were calculated by the GraFit method (Erithacus Software Limited, Staines, UK). Cell viability was measured with the 3-(4,5 dimethylthiazol-2-yl)-2,5-diphenyl tetrazolium bromide (MTT; Sigma-Aldrich) assay.
as §5

The next assay has as its system T98G. Kind of assay: GBM cell line viability IC50, T98G. Format: cell-based. On the procedure: as §1, §2, §3, §4, §5
The mark [2] stands for this setting: drug in combination with radiotherapy 2 Gy x 5 days, EDO-S101 60 mg/kg iv days 1, 8, 15, temozolomide 16 mg/kg po x 5 days.

With `Cn1c(CCCCCCC(=O)NO)nc2cc(N(CCCl)CCCl)ccc21` [EDO-S101], the concentration for half-maximal inhibition (IC50) was found to be 1.36 µM in the assay with U87MG; 6.61 µM with U118MG; 2.26 µM in the assay with U373MG (Uppsala); 12.7 µM in the assay on Mz-54; 6.45 µM in the assay with A172; 4.27 µM in the assay on U138MG. Further, the IC50 was 1.55 µM in the assay with LN228, 8.24 µM with SW1783 (SW1783), 1.87 µM in the assay with LN18 and 2.17 µM with SNB19. The “time to progression of the tumours” value with U87 (drug alone, 60 mg/kg iv days 1, 8, 15, control approximately 15 days) is on record as 40 days; with U87 (setting [2]), “over 50 days”. For the same molecule, the “time to progression versus radiotherapy, or versus radiotherapy and temozolomide” value with U87 (U87 s.c. xenograft, drug alone, FIG. 13, FIG. 14) is “considerably longer; also recorded: greater than that achieved with the combined radiotherapy and temozolomide treatment”. Further, in the assay on U87 (U87 s.c. xenograft, drug plus radiotherapy, FIG. 14), the “time to progression versus EDO-S101 alone and versus radiotherapy and temozolomide” value was “significantly longer”. The tumour growth result in assay [1] (single iv dose 60 mg/kg day +4) was “suppression of tumour growth”. Besides, in assay [1], the median survival came to 71 days.
In the case of `Cn1c(CCCC(=O)O)nc2cc(N(CCCl)CCCl)ccc21` [bendamustine], the IC50 in the assay with U251MG worked out at 30 µM; in the assay on U87MG it was 50 µM; in the assay on T98G (Homo sapiens, T98G) it was 52 µM; with U118MG it was 35 µM; in the assay with U373MG (Uppsala), 35 µM; in the assay on Mz-54 it was 60 µM. Further, the IC50 with A172 was determined as 55 µM; in the assay with U138MG, 30 µM; in the assay with LN228, 35 µM; in the assay on SW1783 (SW1783), 38 µM; in the assay on LN18, 25 µM; in the assay on SNB19, 32 µM. Besides, the median survival in assay [1] stood at 62 days.
Take `Cn1nnc2c(C(N)=O)ncn2c1=O` [temozolomide]: the IC50 is 20 µM with U251MG (MGMT negative U251MG glioblastoma cell line, read-out: IC50); 20 µM in the assay on U87MG (MGMT negative U87G glioblastoma cell line, read-out: IC50); > 100 µM with T98G (Homo sapiens, MGMT positive T98G glioblastoma cell line, read-out: IC50); > 100 µM in the assay with T98G (T98G, MGMT pos., no unit in Table 2 (µM), read-out: IC50); > 100 µM in the assay on U118MG (U118MG, MGMT pos., no unit in Table 2, read-out: IC50); 80 µM in the assay with U373MG (Uppsala) (U373MG (Uppsala), MGMT neg., no unit in Table 2, read-out: IC50). Further, the IC50 in the assay on Mz-54 (Mz-54, MGMT pos., no unit in Table 2, read-out: IC50) is > 100 µM; with A172 (A172, MGMT neg., no unit in Table 2, read-out: IC50), ~100 µM; with U138MG (U138MG, MGMT pos., no unit in Table 2, read-out: IC50) it was > 100 µM; with LN228 (LN228, MGMT neg., no unit in Table 2, read-out: IC50) it was > 100 µM; with SW1783 (SW1783, MGMT neg., no unit in Table 2, read-out: IC50), 80 µM; in the assay on LN18 (LN18, MGMT pos., no unit in Table 2, read-out: IC50) it was > 100 µM. Besides, the IC50 in the assay with SNB19 (SNB19, MGMT neg., no unit in Table 2, read-out: IC50) is > 100 µM. In the assay on U87 (setting [2]), the “time to progression of the tumours” value is reported as 35 days.
